# Data reported in US9090897B2, “Production of IFN-lambda by conventional dendritic cells” (Bavarian Nordic A/S, priority 2009, dated 2015).
# Entries after “also recorded” stand apart in the source; their conditions may differ.
# What was measured:
# eCD8α cDCs = experiment: In vitro stimulation of FL expanded ex-vivo isolated splenic eCD8α cDCs, IFN-λ; format: cell-based, mouse; settings: 5×10^5/ml, IL-3+GM-CSF+IL-4+IFN-γ, 100 μg/ml, 18 h
# Procedure: (§1) FIG. 13 depicts that in vivo FL expanded CD8α+cDCs and eCD8α cDCs selectively produce IFN-λ to poly AU in vitro. Highly purified FL expanded ex-vivo isolated splenic 5×10^5/ml were stimulated in the presence of IL-3+GM-CSF+IL-4+IFN-γ with either poly IC (100 μg/ml) or poly AU (100 μg/ml). After 18 h supernatants were analyzed for IFN-λ.
# (§2) To see if the IFN-λ production to poly AU seen in vivo would correspond with the same cells as in response to poly IC we enhanced the amount of DC in mice with FL treatment and sorted CD8α+ cDCs, eCD8α cDCs and CD11b+/CD172a+cDCs. Those cells were stimulated with poly IC or poly AU.
# PBMC = experiment: Stimulation of human PBMC, IFN-λ1 and IFN-λ2 ELISA; format: cell-based; settings: PBMCs and fractions of DC-enriched PBMCs, IL-3, GM-CSF and IFN-γ, 18-24 h
# Procedure: (§3) PBMC were prepared from peripheral blood of non-atopic blood donors by density gradient centrifugation and BDCA3+ DC were purified from PBMC using the BDCA3/CD141+Dendritic Cell Isolation Kit (Miltenyi Biotech) on an AutoMACS™ separator. Subsequently, BDCA1+ DC were purified from the BDCA3-depleted PBMC using the BDCA1/CD1c+ Dendritic Cell Isolation Kit (Miltenyi Biotech). […] After stimulation for 18-24 h the supernatants were analyzed for IFN-λ1 and IFN-λ2 by ELISA according to manufacturer's recommendations (Tebu-bio).
# CD8-cDCs = experiment: In vitro stimulation of sorted splenic CD8- cDCs, IFN-λ ELISA; format: cell-based, mouse; settings: 5×10^5/ml, IL-3 and GM-CSF, 18 h
# From the text: (§4) DC subsets were isolated from pooled mouse spleens as described (Vremec et al., 2007). Briefly, spleens were chopped, digested with collagenase (Worthington Biochemical) and DNase (Roche) at room temperature, and treated with EDTA. Low-density cells were enriched by density centrifugation; non-DC lineage cells were coated with mAbs (anti-CD3, KT3-1.1; anti-Thy-1, T24/31.7; anti Gr-1, 1A8; anti-CD19, ID3; anti-erythrocytes, TER119 and anti-NK cells, DX5) and depleted using anti-rat Ig magnetic beads (Qiagen). Dead cells were excluded by propidium iodide staining. cDC populations were sorted based on the expression of CD11c, CD45RA, CD4, CD8a and CD172a and pDCs were purified based on CD11c, CD45RA, and CD172a (all BD Biosciences) expression. Cell sorting was performed on a FACS Aria instrument (BD Biosciences).
# (§5) Cells were stimulated in vitro with single TLR agonists or combinations thereof containing 10 μg/ml Pam3Cys (InvivoGen), 100 μg/ml poly IC (Axxora), 10 μg/ml LPS (E. coli; Sigma-Aldrich or Axxora), 10 μg/ml R848 (Axxora), 1 μM CpG-1668 or CpG-2216 (TIB-Molbiol), 1 μg/ml profilin of toxoplasma (Axxora). […] IFN-λ in supernatants was analyzed by ELISA and IL-12p70 was determined by FlowCytomix bead assay (Bender Medsystems) according to manufacturer's protocol.
# [1] = system: total non parenchymal liver cells; experiment: In vitro stimulation of total non parenchymal liver cells, IFN-λ and IL-12p70; format: cell-based, mouse; settings: liver cells from WT mice, 2.5×10^6/ml, IL-3+IL-4+IFN-γ+GM-CSF, 18 h
# Procedure: FIGS. 3A and B depict that FL is involved in the production of IFN-λ in vivo. (A) Isolated total non parenchymal liver cells 2.5×10^6/ml were stimulated in the presence of IL-3+IL-4+IFN-γ+GM-CSF with the stimuli as indicated. After 18 h supernatants were analyzed for IFN-λ and IL-12p70. Representative results of 3 experiments are shown. Data represent mean+/−SD of duplicate samples. (B) WT and FL-KO mice were injected i.v. with 100 μg poly IC. After 3-4 h sera were analyzed for IFN-λ and IFN-α. Circles indicate the results of individual mice and columns represent the mean thereof.
# as §5, with “(Axxora). The recombinant cytokines mouse-IL-3, mouse-IL-4, rat-IFN-γ (PeproTech) and mouse-GM-CSF (Tebu-Bio) (10 ng/ml each) were added as indicated.” for “(Axxora).”, “protocol. […]” for “protocol.”
# FLDC-derived eCD8+ cDCs = experiment: In vitro stimulation of sorted FLDC-derived eCD8+ cDCs, IFN-λ ELISA; format: cell-based, mouse
# Procedure: FL bone marrow culture derived dendritic cells (FLDC) were prepared as described (Hochrein et al., 2004). pDCs and eCD8+ and eCD8^− cDC subsets were sorted based on the expression of CD11c, CD45R, CD11b, CD24, and CD172a or CD103 (all BD Biosciences).
# Cells were stimulated in vitro with single TLR agonists or combinations thereof containing 10 μg/ml Pam3Cys (InvivoGen), 100 μg/ml poly IC (Axxora), 10 μg/ml LPS (E. coli; Sigma-Aldrich or Axxora), 10 μg/ml R848 (Axxora), 1 μM CpG-1668 or CpG-2216 (TIB-Molbiol), 1 μg/ml profilin of toxoplasma (Axxora). The recombinant cytokines mouse-IL-3, mouse-IL-4, rat-IFN-γ (PeproTech) and mouse-GM-CSF (Tebu-Bio) (10 ng/ml each) were added as indicated. The addition of IL-3 and GM-CSF was based on previous observations that GM-CSF promoted the production of IL-12p70 and that the combination of IL-3 and GM-CSF increased virus induced IFN-λ production in pDCs and cDCs (Hochrein et al., 2000; Hochrein et al., 2004). As source of a parapoxvirus Zylexis, which is used for veterinary purposes was purchased from a pharmacy. HSV-1, in replication deficient form known as disc HSV-1 (HSV-1d) was used as described (Hochrein et al., 2004). IFN-λ in supernatants was analyzed by ELISA and IL-12p70 was determined by FlowCytomix bead assay (Bender Medsystems) according to manufacturer's protocol.
# mice = experiment: In vivo challenge (i.v.), serum IFN-λ and IFN-α by ELISA; design: species or system mouse; settings: 100 μg i.v.
# splenic pDCs = experiment: In vitro stimulation of sorted splenic pDCs, IFN-λ ELISA; format: cell-based, mouse; settings: 5×10^5/ml, IL-3 and GM-CSF, 18 h
# From the text: as §4, §5
# CD8α+ cDCs = experiment: In vitro stimulation of FL expanded ex-vivo isolated splenic CD8α+ cDCs, IFN-λ; format: cell-based, mouse; settings: 5×10^5/ml, IL-3+GM-CSF+IL-4+IFN-γ, 100 μg/ml, 18 h
# Procedure: as §1, §2
# BDCA3+ DC = experiment: Stimulation of human BDCA3+ DC, IFN-λ1 and IFN-λ2 ELISA; format: cell-based; settings: BDCA3 positive cells vs BDCA1 cells, all donors, 100 μg/ml, 18-24 h
# Procedure: as §3
substance,measurement,setting,value
Polyinosinic:polycytidylic acid [poly IC],IFN-λ production,eCD8α cDCs,able to produce IFN-λ
same,IFN-λ1 (IL-29) production,PBMC,induced
same,IFN-λ2 (IL-28A) production,PBMC,induced
same,IFN-λ production,CD8-cDCs,largely unable to participate in IFN-λ production
same,IFN-λ production,[1],produced IFN-λ
same,IFN-λ production,"FLDC-derived eCD8+ cDCs; WT eCD8+ cDCs, 18 h",produced IFN-λ
same,"IFN-λ production, dependence on Cardif, MyD88, TLR3","FLDC-derived eCD8+ cDCs; eCD8+ cDCs generated from Cardif-, MyD88- or TLR3-KO mice",involvement of TLR3 but not Cardif or MyD88
same,serum IFN-α,"mice; Cardif-KO mice, 3-4 h",complete abrogation of serum IFN-α
same,serum IFN-λ,"mice; Cardif-KO mice, 3-4 h",no effects on IFN-λ production
same,Serum levels of IFN-α,"mice; FL-KO mice, 3-4 h",remained easily detectable
same,systemic production of IFN-α,"mice; IFN-AR-KO vs WT mice, 3-4 h",largely dependent on the presence of IFN-AR
same,systemic production of IFN-λ,"mice; IFN-AR-KO vs WT mice, 3-4 h",largely dependent on the presence of IFN-AR
same,serum IFN-α,"mice; IRF7-KO mice, 3-4 h",almost abrogated
same,serum IFN-α,"mice; MyD88-KO mice, 3-4 h",Large amounts
same,serum IFN-λ,"mice; MyD88-KO mice, 3-4 h",Large amounts
same,serum IFN-α,"mice; TLR3-KO mice, 3-4 h",no effect on the production of IFN-α
same,Serum levels of IFN-α,"mice; WT mice, sera after 3-4 h",easily detectable; also recorded: Large amounts
same,IFN-λ production,splenic pDCs,largely unable to participate in IFN-λ production
same,IFN-λ production,CD8α+ cDCs,able to produce IFN-λ
same,IFN-λ1 production,BDCA3+ DC,major producers
same,IFN-λ2 production,BDCA3+ DC,major producers
